From ChEMBL document CHEMBL1153700, “Synthesis and SAR of novel, non-MPEP chemotype mGluR5 NAMs identified by functional HTS” (Bioorg Med Chem Lett, 2009)

Assays:
[1] = biological target: Metabotropic glutamate receptor 5 (Rattus norvegicus, UniProt P31424); assay: Antagonist activity at rat mGluR5 expressed in human HEK293A cells assessed as inhibition of glutamate-induced calcium flux; type: functional, cell-based, HEK293-A
[2] = biological target: Metabotropic glutamate receptor 5 (Rattus norvegicus) (UniProt P31424); assay: Antagonist activity at rat mGluR5 expressed in human HEK293A cells assessed as inhibition of glutamate-induced calcium flux relative to glutamate; type: functional, cell-based; settings: HEK293-A
[3] = biological target: Metabotropic glutamate receptor 5 (Homo sapiens, UniProt P41594); assay: Antagonist activity at mGluR5; type: functional
Sequence of Metabotropic glutamate receptor 5 (Homo sapiens, UniProt P41594) (P41594 whole entry): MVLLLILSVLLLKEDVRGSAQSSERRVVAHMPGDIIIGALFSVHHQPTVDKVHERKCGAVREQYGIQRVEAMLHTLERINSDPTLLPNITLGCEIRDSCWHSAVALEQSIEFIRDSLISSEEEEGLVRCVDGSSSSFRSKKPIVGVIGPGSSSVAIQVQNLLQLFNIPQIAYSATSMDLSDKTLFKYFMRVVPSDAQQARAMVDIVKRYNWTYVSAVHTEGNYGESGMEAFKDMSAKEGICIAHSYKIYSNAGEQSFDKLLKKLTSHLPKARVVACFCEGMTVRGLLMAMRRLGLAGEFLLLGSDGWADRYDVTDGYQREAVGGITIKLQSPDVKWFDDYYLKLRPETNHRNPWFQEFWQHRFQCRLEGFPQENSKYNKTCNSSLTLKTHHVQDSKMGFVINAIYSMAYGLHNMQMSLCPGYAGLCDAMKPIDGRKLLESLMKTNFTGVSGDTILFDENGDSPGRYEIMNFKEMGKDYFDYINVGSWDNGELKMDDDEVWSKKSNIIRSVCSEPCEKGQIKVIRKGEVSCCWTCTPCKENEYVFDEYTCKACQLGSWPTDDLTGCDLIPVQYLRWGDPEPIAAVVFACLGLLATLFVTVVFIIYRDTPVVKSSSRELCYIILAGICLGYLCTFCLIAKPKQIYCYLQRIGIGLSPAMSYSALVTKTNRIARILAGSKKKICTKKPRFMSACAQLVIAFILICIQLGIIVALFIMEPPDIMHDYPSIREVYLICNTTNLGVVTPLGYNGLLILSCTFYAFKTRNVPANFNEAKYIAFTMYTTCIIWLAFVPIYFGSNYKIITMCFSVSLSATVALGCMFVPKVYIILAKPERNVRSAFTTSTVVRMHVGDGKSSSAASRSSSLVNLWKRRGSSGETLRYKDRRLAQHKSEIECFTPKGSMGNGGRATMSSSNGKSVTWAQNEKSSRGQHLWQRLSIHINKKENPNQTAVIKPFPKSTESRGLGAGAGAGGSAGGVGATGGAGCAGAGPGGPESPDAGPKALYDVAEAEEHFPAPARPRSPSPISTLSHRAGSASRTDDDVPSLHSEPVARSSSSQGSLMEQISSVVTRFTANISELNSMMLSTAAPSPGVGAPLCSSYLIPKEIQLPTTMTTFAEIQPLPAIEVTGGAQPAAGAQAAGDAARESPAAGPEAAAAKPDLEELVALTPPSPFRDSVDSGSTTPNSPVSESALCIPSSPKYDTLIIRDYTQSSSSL

Sequence of Metabotropic glutamate receptor 5 (Rattus norvegicus, UniProt P31424) (P31424 whole entry): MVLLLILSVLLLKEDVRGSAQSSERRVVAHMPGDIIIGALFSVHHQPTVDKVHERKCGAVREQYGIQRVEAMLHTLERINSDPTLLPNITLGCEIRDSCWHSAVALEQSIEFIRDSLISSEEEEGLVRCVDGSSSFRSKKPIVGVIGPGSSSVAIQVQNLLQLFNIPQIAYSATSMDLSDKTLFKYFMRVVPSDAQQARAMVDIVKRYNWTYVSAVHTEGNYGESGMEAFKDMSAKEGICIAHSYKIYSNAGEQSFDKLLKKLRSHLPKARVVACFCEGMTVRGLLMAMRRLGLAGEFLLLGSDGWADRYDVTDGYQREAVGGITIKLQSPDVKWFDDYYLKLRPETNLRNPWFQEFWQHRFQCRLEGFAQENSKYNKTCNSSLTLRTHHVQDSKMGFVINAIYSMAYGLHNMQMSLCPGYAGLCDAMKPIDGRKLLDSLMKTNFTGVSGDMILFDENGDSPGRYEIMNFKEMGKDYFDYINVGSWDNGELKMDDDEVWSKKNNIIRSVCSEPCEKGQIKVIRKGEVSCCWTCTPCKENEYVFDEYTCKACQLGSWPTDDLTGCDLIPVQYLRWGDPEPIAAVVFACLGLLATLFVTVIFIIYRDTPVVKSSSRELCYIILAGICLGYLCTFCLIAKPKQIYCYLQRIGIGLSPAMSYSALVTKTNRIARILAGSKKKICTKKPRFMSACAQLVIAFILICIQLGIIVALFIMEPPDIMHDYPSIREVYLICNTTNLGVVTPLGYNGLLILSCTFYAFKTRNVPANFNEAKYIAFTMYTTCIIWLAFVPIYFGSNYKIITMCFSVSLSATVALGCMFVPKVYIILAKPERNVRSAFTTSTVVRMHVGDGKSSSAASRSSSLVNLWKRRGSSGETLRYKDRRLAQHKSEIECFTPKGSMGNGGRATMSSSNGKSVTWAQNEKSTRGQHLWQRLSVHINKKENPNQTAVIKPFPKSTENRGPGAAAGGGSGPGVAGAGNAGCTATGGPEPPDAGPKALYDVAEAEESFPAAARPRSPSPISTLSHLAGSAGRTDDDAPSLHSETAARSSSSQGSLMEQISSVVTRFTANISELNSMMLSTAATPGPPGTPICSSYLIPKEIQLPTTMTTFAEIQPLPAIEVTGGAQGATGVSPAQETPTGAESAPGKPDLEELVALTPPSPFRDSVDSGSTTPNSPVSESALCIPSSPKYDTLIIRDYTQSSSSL
Sequence of Metabotropic glutamate receptor 5 (Rattus norvegicus) (P31424 21-1203 limits assumed): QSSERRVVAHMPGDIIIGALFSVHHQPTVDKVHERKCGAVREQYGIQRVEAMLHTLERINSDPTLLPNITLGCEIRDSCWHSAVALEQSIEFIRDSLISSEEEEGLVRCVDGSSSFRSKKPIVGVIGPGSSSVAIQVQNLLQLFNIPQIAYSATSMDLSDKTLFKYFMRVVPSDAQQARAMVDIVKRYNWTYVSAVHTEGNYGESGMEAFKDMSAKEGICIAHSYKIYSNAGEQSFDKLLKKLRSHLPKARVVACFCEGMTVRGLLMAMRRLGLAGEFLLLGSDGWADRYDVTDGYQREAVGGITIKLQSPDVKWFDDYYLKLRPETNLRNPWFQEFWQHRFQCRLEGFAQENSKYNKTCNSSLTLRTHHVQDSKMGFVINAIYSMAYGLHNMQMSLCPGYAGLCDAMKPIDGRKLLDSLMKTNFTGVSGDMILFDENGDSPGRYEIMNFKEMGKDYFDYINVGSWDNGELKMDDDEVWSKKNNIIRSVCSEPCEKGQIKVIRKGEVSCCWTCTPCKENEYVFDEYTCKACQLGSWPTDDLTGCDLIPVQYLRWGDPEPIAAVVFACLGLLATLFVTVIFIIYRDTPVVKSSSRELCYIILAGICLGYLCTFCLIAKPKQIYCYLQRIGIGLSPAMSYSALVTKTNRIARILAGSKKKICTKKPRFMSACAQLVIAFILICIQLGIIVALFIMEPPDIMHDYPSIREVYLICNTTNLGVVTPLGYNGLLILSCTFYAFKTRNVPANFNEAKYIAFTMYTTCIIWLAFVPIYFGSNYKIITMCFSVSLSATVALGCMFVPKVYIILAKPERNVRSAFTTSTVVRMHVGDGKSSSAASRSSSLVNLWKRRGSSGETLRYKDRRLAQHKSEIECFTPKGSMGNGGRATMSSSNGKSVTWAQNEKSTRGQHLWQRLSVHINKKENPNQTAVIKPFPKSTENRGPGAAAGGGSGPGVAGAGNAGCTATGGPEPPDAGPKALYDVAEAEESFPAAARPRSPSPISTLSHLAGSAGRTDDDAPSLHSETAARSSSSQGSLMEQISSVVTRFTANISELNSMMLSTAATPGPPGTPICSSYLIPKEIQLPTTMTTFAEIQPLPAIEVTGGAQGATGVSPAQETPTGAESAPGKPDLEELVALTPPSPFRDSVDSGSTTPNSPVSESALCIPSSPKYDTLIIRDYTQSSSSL

Row | Structure (SMILES) | IC50 [1] | % Glu Max [2] | IC50 [3]
1 | O=C(NC1CC2CCC1C2)c1cccc(N2C(=O)c3ccccc3C2=O)c1 (stereo not drawn) | > 30 µM | 71% | 
2 | O=C(Nc1ccccn1)c1cccc(N2C(=O)c3ccccc3C2=O)c1 | 1.26 µM | 59.5% | 
3 | COc1ccccc1C(=O)Nc1cccc(NC(=O)Cc2ccccc2)c1 | > 30 µM |  | 
4 | O=C(Nc1cccc(NC(=O)C2CCC2)c1)c1cccc(Cl)c1 | 5.27 µM | 44% | 
5 | COc1ccccc1C(=O)Nc1cccc(NC(=O)C2CCC2)c1 | > 30 µM |  | 
6 | COc1ccccc1C(=O)Nc1cccc(NC(=O)c2cc(Cl)cc(Cl)c2)c1 | > 30 µM |  | 
7 | COc1ccccc1C(=O)Nc1cccc(NC(=O)c2cccc(Cl)c2)c1 | 0.88 µM | 2.6% | 1.1 µM
8 | O=C(NC1CC1)c1cccc(N2C(=O)c3ccccc3C2=O)c1 | > 30 µM | 68% | 
9 | O=C(Nc1ccccc1F)c1cccc(N2C(=O)c3ccccc3C2=O)c1 | 1.05 µM | 49.9% | 
10 | COc1ccccc1C(=O)Nc1cccc(NC(=O)C(C)C)c1 | > 30 µM |  | 
11 | O=C(Nc1cccc(NC(=O)C2CC2)c1)c1cccc(Cl)c1 | 2.23 µM | 32.3% | 
12 | COc1ccccc1C(=O)Nc1cccc(NC(=O)c2cccc(C(F)(F)F)c2)c1 | 10.6 µM | 26.1% | 
13 | COc1ccccc1C(=O)Nc1cccc(NC(=O)C2CCCCC2)c1 | > 30 µM |  | 
14 | O=C(Nc1cccc(NC(=O)c2ccc(Cl)c(Cl)c2)c1)c1cccc(Cl)c1 | > 30 µM |  | 
15 | O=C(Nc1cccc(NC(=O)c2cccc(Cl)c2)c1)c1cccc(F)c1 | > 30 µM |  | 
16 | O=C(Nc1cccc(NC(=O)c2ccccc2Cl)c1)c1cccc(Cl)c1 | 2.62 µM | 8.78% | 
17 | O=C(Nc1cccc(NC(=O)C23CC4CC(CC(C4)C2)C3)c1)c1cccc(Cl)c1 | > 30 µM |  | 
18 | O=C(Nc1cccc(Cl)c1)c1cccc(N2C(=O)c3ccccc3C2=O)c1 | 1.78 µM | 26.4% | 
19 | COc1ccccc1C(=O)Nc1cccc(NC(=O)c2ccccc2Cl)c1 | > 30 µM |  | 
20 | O=C(Cc1ccccc1)Nc1cccc(NC(=O)c2cccc(Cl)c2)c1 | > 30 µM |  | 
21 | COc1ccccc1C(=O)Nc1cccc(NC(=O)c2ccc3c(c2)OCO3)c1 | > 30 µM |  | 
22 | COc1ccccc1C(=O)Nc1cccc(NC(=O)c2cccc(C)c2)c1 | 1.35 µM | 3.82% | 
23 | O=C(Nc1cccc(NC(=O)c2cccc(C(F)(F)F)c2)c1)c1cccc(Cl)c1 | > 30 µM |  | 
24 | COc1ccccc1C(=O)Nc1cccc(NC(=O)c2ccco2)c1 | > 30 µM |  | 
25 | COCC(=O)Nc1cccc(NC(=O)c2cccc(Cl)c2)c1 | > 30 µM |  | 
26 | O=C(Nc1cccc(NC(=O)c2cccc(Cl)c2)c1)c1cccc(Cl)c1 | > 30 µM |  | 

Row | Structure (SMILES) | IC50 [1] | % Glu Max [2] | IC50 [3]
27 | CC(C)C(=O)Nc1cccc(NC(=O)c2cccc(Cl)c2)c1 | 5.82 µM | 26.9% | 
28 | COc1ccccc1C(=O)Nc1cccc(NC(=O)C2CC2)c1 | > 30 µM |  | 
29 | O=C(Nc1cccnc1)c1cccc(N2C(=O)c3ccccc3C2=O)c1 | > 30 µM | 86% | 
30 | O=C(Nc1cccc(NC(=O)c2ccc3c(c2)OCO3)c1)c1cccc(Cl)c1 | > 30 µM |  | 
31 | O=C(Nc1cccc(NC(=O)c2ccco2)c1)c1cccc(Cl)c1 | 4.51 µM | 49.3% | 
32 | O=C(Nc1cccc(NC(=O)C2CCCC2)c1)c1cccc(Cl)c1 | > 30 µM |  | 
33 | COc1ccccc1NC(=O)c1cccc(N2C(=O)c3ccccc3C2=O)c1 | > 30 µM | 86% | 
34 | COc1ccccc1C(=O)Nc1cccc(NC(=O)C2CCCC2)c1 | > 30 µM |  | 
35 | COc1ccccc1C(=O)Nc1cccc(NC(=O)c2ccc(Cl)c(Cl)c2)c1 | > 30 µM |  | 
36 | COc1cc(NC(=O)c2cccc(N3C(=O)c4ccccc4C3=O)c2)cc(OC)c1 | 3.58 µM | 76.2% | 
37 | COc1ccccc1C(=O)Nc1cccc(NC(=O)c2cccc(F)c2)c1 | 6.48 µM | 25.8% | 
38 | O=C(Nc1cccc(NC(=O)C2CC2c2ccccc2)c1)c1cccc(Cl)c1 (stereo not drawn) | > 30 µM |  | 
39 | COc1ccccc1C(=O)Nc1cccc(NC(=O)c2ccc(F)cc2)c1 | > 30 µM |  | 
40 | COc1ccccc1C(=O)Nc1cccc(NC(C)=O)c1 | > 30 µM |  | 
41 | O=C(Nc1cccc(NC(=O)c2cccc(Cl)c2)c1)c1ccc(Cl)cc1 | > 30 µM |  | 
42 | O=C(Nc1cccc(NC(=O)c2cccc(Cl)c2)c1)c1ccc(F)cc1 | > 30 µM |  | 
43 | O=C(Nc1cccc(O)c1)c1cccc(N2C(=O)c3ccccc3C2=O)c1 | 7.79 µM | 48.1% | 
44 | Cc1cccc(C(=O)Nc2cccc(NC(=O)c3cccc(Cl)c3)c2)c1 | > 30 µM |  | 
45 | COCC(=O)Nc1cccc(NC(=O)c2ccccc2OC)c1 | > 30 µM |  | 
46 | COc1ccccc1C(=O)Nc1cccc(NC(=O)c2ccc(Cl)cc2)c1 | > 30 µM |  | 
47 | COc1ccccc1C(=O)Nc1cccc(NC(=O)C2CC2c2ccccc2)c1 (stereo not drawn) | > 30 µM |  | 
48 | COc1ccccc1C(=O)Nc1cccc(NC(=O)C23CC4CC(CC(C4)C2)C3)c1 | > 30 µM |  | 
49 | O=C(Nc1ccc(F)cc1)c1cccc(N2C(=O)c3ccccc3C2=O)c1 | > 30 µM | 73% | 
50 | COc1ccccc1C(=O)Nc1cccc(NC(=O)c2cccc(C#N)c2)c1 | 1.8 µM | 3.22% | 
51 | CC(=O)Nc1cccc(NC(=O)c2cccc(Cl)c2)c1 | 7.97 µM | 39.6% | 
